This passage reports EC50 results from patent US20260250325A1, “Antiviral Polypeptide Membrane Fusion Inhibitor, and Preparation Method and Application Thereof” (priority 2025, published 2026).

For orientation: EC50 means the midpoint of the concentration-response curve.

One experiment relates to hMPV A2. The format is cell-based. The conditions noted are these: Vero cells, plaque reduction. Summed up:
(§1)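 Plaque reduction in Vero cells (40000/well), 8 concentrations in duplicate; compound pre-mixed with ~200 PFU virus 1 h at 33° C, adsorbed 2 h at 37° C, then overlay with compound, 0.8% CMC, 5 μg/ml trypsin, 0.5% DMSO for 1 day at 33° C. Plaques immunostained (TrueBlue) and counted; EC50 by four-parameter fit.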

The subject of the next experiment is hMPV B1. The format is cell-based. The conditions noted are these: Vero cells, plaque reduction. The method, boiled down: as §1
For a further experiment, the system named is hPIV3 C243 virus strain. The format is cell-based, hPIV. The conditions noted are these: LLC-MK2 cells, hPIV3 C243, plaque reduction; read-out: EC50 against hPIV3 virus. The method, boiled down:
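LLC-MK2 cells (40,000/well) infected with about 200 PFU of virus preincubated 1 h with the sample, then overlaid with 0.8% CMC medium containing the sample (0.5% DMSO) for 1 day at 37 °C. Plaques immunostained with TrueBlue and counted; 8 concentrations in duplicate, EC50 from a four-parameter fit.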

Where a SMILES comes first, the peptide text is derived from it. The star is where a group is joined. Succinyl(4-O-cholesteryl) = CC(C)CCC[C@@H](C)[C@H]1CC[C@H]2[C@@H]3CC=C4C[C@@H](OC(=O)CCC(=O)*)CC[C@]4(C)[C@H]3CC[C@]12C

For `CC[C@H](C)[C@H](NC(=O)[C@H](CO)NC(=O)[C@H](C)NC(=O)[C@H](CC(=O)O)NC(=O)[C@H](Cc1ccccc1)NC(=O)[C@H](CCC(=O)O)NC(=O)[C@H](CC(=O)O)NC(=O)[C@H](Cc1c[nH]c2ccccc12)NC(C)=O)C(=O)N[C@@H](CCC(=O)O)C(=O)N[C@@H](CCC(=O)O)C(=O)N[C@H](C(=O)N[C@@H](CC(N)=O)C(=O)N[C@@H](CCCNC(=N)N)C(=O)N[C@@H](CCCNC(=N)N)C(=O)N[C@H](C(=O)N[C@@H](CCC(=O)O)C(=O)N[C@@H](CCC(=O)O)C(=O)N[C@@H](CO)C(=O)N[C@@H](CC(C)C)C(=O)N[C@@H](CCCNC(=N)N)C(=O)N[C@@H](CCCNC(=N)N)C(=O)N[C@H](C(=O)N[C@@H](CCC(=O)O)C(=O)N[C@@H](CCC(=O)O)C(=O)N[C@@H](CO)C(=O)N[C@@H](CC(=O)O)C(=O)N[C@@H](CCCNC(=N)N)C(=O)N[C@@H](CCCNC(=N)N)C(=O)N[C@@H](CC(C)C)C(=O)N[C@@H](CCC(=O)O)C(=O)N[C@@H](CCC(=O)O)C(=O)N[C@H](C(=O)N[C@@H](CCC(=O)O)C(=O)N[C@@H](C)C(=O)N[C@@H](C)C(=O)N[C@@H](C)C(=O)N[C@@H](CCCCN)C(=O)N[C@@H](CCCCNC(=O)CCC(=O)O[C@H]1CC[C@@]2(C)C(=CC[C@H]3[C@@H]4CC[C@H]([C@H](C)CCCC(C)C)[C@@]4(C)CC[C@@H]32)C1)C(N)=O)C(C)C)[C@@H](C)CC)[C@@H](C)CC)C(C)C` [Compound 43] (Ac-WDEFDASIEEVNRRIEESLRRIEESDRRLEEVEAAAKK(Succinyl(4-O-cholesteryl))-NH2), the EC50 in the experiment with hMPV A2 is 0.0168 µM; in the experiment with hMPV B1 it was 0.00801 µM; in the experiment on hPIV3 C243 virus strain, 0.0161 µM.
For `CC[C@H](C)[C@H](NC(=O)[C@H](CCCCN)NC(=O)[C@H](CCCCN)NC(=O)[C@H](CC(C)C)NC(=O)[C@H](CO)NC(=O)[C@H](CCC(=O)O)NC(=O)[C@H](CCC(=O)O)NC(=O)[C@@H](NC(=O)[C@H](CCCCN)NC(=O)[C@H](CCCCN)NC(=O)[C@H](CC(N)=O)NC(=O)[C@@H](NC(=O)[C@H](CCC(=O)O)NC(=O)[C@H](CCC(=O)O)NC(=O)[C@@H](NC(=O)[C@H](CCCCN)NC(=O)[C@H](CCCCN)NC(=O)[C@H](CC(=O)O)NC(=O)[C@H](Cc1ccccc1)NC(=O)[C@H](CCC(=O)O)NC(=O)[C@H](CC(=O)O)NC(=O)[C@H](Cc1c[nH]c2ccccc12)NC(C)=O)[C@@H](C)CC)C(C)C)[C@@H](C)CC)C(=O)N[C@@H](CCC(=O)O)C(=O)N[C@@H](CCC(=O)O)C(=O)N[C@@H](CO)C(=O)N[C@@H](CC(=O)O)C(=O)N[C@@H](CCCCN)C(=O)N[C@@H](CCCCN)C(=O)N[C@@H](CC(C)C)C(=O)N[C@@H](Cc1c[nH]cn1)C(=O)N[C@@H](CC(N)=O)C(=O)N[C@H](C(=O)N[C@@H](CCC(=O)O)C(=O)N[C@@H](C)C(=O)N[C@@H](C)C(=O)N[C@@H](C)C(=O)N[C@@H](CCCCN)C(=O)N[C@@H](CCCCNC(=O)CCC(=O)O[C@H]1CC[C@@]2(C)C(=CC[C@H]3[C@@H]4CC[C@H]([C@H](C)CCCC(C)C)[C@@]4(C)CC[C@@H]32)C1)C(N)=O)C(C)C` [Compound 44] (Ac-WDEFDKKIEEVNKKIEESLKKIEESDKKLHNVEAAAKK(Succinyl(4-O-cholesteryl))-NH2), in that order: 0.0146 µM, 0.0066 µM and 0.0279 µM.
For `CC[C@H](C)[C@H](NC(=O)[C@H](CO)NC(=O)[C@H](C)NC(=O)[C@H](CC(=O)O)NC(=O)[C@H](Cc1ccccc1)NC(=O)[C@H](CCC(=O)O)NC(=O)[C@H](CC(=O)O)NC(=O)[C@H](Cc1c[nH]c2ccccc12)NC(C)=O)C(=O)N[C@@H](CO)C(=O)N[C@@H](CCC(N)=O)C(=O)N[C@H](C(=O)N[C@@H](CC(N)=O)C(=O)N[C@@H](CCC(=O)O)C(=O)N[C@@H](CCCCN)C(=O)N[C@H](C(=O)N[C@@H](CC(N)=O)C(=O)N[C@@H](CCC(N)=O)C(=O)N[C@@H](CO)C(=O)N[C@@H](CC(C)C)C(=O)N[C@@H](CCC(=O)O)C(=O)N[C@@H](CCC(=O)O)C(=O)N[C@H](C(=O)N[C@@H](CCCNC(=N)N)C(=O)N[C@@H](CCCCN)C(=O)N[C@@H](CO)C(=O)N[C@@H](CC(=O)O)C(=O)N[C@@H](CCC(=O)O)C(=O)N[C@@H](CC(C)C)C(=O)N[C@@H](CC(C)C)C(=O)N[C@@H](Cc1c[nH]cn1)C(=O)N[C@@H](CC(N)=O)C(=O)N[C@@H](CCC(=O)O)C(=O)N[C@@H](C)C(=O)N[C@@H](C)C(=O)N[C@@H](C)C(=O)N[C@@H](CCCCN)C(=O)N[C@@H](CCCCNC(=O)CCC(=O)O[C@H]1CC[C@@]2(C)C(=CC[C@H]3[C@@H]4CC[C@H]([C@H](C)CCCC(C)C)[C@@]4(C)CC[C@@H]32)C1)C(N)=O)[C@@H](C)CC)[C@@H](C)CC)C(C)C` [Compound 45] (Ac-WDEFDASISQVNEKINQSLEEIRKSDELLHNEAAAKK(Succinyl(4-O-cholesteryl))-NH2) the same measures were 0.201 µM, 0.0131 µM and 0.0363 µM.
`CC[C@H](C)[C@H](NC(=O)[C@H](CCCCN)NC(=O)[C@H](CCCCN)NC(=O)[C@H](CC(C)C)NC(=O)[C@H](CO)NC(=O)[C@H](CCC(N)=O)NC(=O)[C@H](CC(N)=O)NC(=O)[C@@H](NC(=O)[C@H](CCCCN)NC(=O)[C@H](CCCCN)NC(=O)[C@H](CC(=O)O)NC(=O)[C@H](Cc1ccccc1)NC(=O)[C@H](CCC(=O)O)NC(=O)[C@@H](NC(=O)[C@H](CCCCN)NC(=O)[C@H](CCCCN)NC(=O)[C@H](CC(N)=O)NC(=O)[C@@H](NC(=O)[C@H](CC(C)C)NC(=O)[C@H](CCC(=O)O)NC(=O)[C@H](CC(=O)O)NC(=O)[C@H](CO)NC(C)=O)C(C)C)[C@@H](C)CC)[C@@H](C)CC)C(=O)N[C@@H](CCC(=O)O)C(=O)N[C@@H](CCC(=O)O)C(=O)N[C@@H](CO)C(=O)N[C@@H](CC(=O)O)C(=O)N[C@@H](CCCCN)C(=O)N[C@@H](CCCCN)C(=O)N[C@@H](CCCCN)C(=O)N[C@@H](CC(C)C)C(=O)N[C@@H](CCC(=O)O)C(=O)N[C@@H](C)C(=O)N[C@@H](C)C(=O)N[C@@H](C)C(=O)N[C@@H](CCCCN)C(=O)N[C@@H](CCCCN)C(N)=O` [Compound 51] (Ac-SDELVNKKIEFDKKINQSLKKIEESDKKKLEAAAKK-NH2): the 50% effective concentration (EC50) in the experiment with hMPV A2 is 0.0188 µM; in the experiment on hMPV B1, 0.00382 µM; with hPIV3 C243 virus strain it was 0.0188 µM.
For “Ac-FDEEISQVNEKINQSLAFIRKSDELLHNVNAGKSTTEAAAKK(Succinyl(4-O-cholesteryl))-NH2 [Compound 26]”, the concentration giving a half-maximal response (EC50) in the experiment on hMPV A2 amounted to 0.103 µM; in the experiment on hMPV B1, 0.00285 µM; in the experiment on hPIV3 C243 virus strain it was 0.00135 µM.
On to “Ac-LVKKIDEFDASISQVNEKINQSLEEIRKSDELLHNVGSGSGK(Succinyl(4-O-cholesteryl))-NH2 [Compound 29]”, for which the values for the half-maximal effective concentration (EC50) in the experiment on hMPV A2, with hMPV B1 and in the experiment on hPIV3 C243 virus strain were 0.0416 µM, 0.0111 µM and 0.0263 µM, respectively.
Regarding “Ac-SLEQVNEKINQSLAFIRKSDEINQSDEEVNKSDELLEAAAKK-NH2 [Compound 50]”, the EC50 in the experiment with hMPV A2 came out at 0.0133 µM; in the experiment on hMPV B1, 0.00595 µM; in the experiment with hPIV3 C243 virus strain it was 0.0348 µM.
For “Ac-WDEFDASISQVNEKINQSLEEIRKSDELLHNVNAGLGSGSGK(Succinyl(4-O-cholesteryl))-NH2 [Compound 27]” the same measures were 0.0783 µM, 0.0105 µM and 0.0272 µM.
For “Ac-WDEFDASISQVNEKINQSLEEIRKSDELLHNVNALEAAAKK(Succinyl(4-O-cholesteryl))-NH2 [Compound 38]”, in that order: 0.128 µM, 0.0166 µM and 0.0264 µM.
